Measured values reported in patent publication US20260014171A1, “COMPOSITION FOR THE USE IN THE TREATMENT OF POLYCYSTIC OVARY SYNDROME” (LO.LI. PHARMA S.R.L., priority 2023, published 2026).

Key:
Type in all cases: cell-based
IGF-1 [1] = test: IGF-1 gene expression by Real Time PCR in co-cultured bovine theca and granulosa cells; details: Phase 1: FSH (46 h), LH 1.5 UI/ml + insulin 100 ng/ml 10 min, then exogenous IGF-1 100 ng/ml 48 h; vs untreated control
Description: (§1) The anti-proliferative activity of Dioscorea villosa, Vitamin D, and α-lactalbumin was investigated (alone or in combination) in cultured bovine theca and granulosa cells (co-culture). To investigate the properties of these natural molecules, the inventors evaluated their effect on cell viability, proliferation, and apoptosis.
(§2) Bovine theca and granulosa were co-cultured, (DMEM, High glucose 5% FBS, […], 1% Pen/Strep, 1% Amphotericin B, 1% Glutamine) for 7 days. The cells were grown in petri dishes and treated shortly before reaching 80% confluence. […]
(§3) The expression of insuline like growth factor IGF-1 and IGF-BP1 insulin like growth factor binding protein 1 were both measured by Real Time PCR and western blot, to investigate the effects of the treatment with the raw materials; namely, Dioscorea villosa, Vitamin D and α-lactalbumin alone or in combination.
(§4) The results were measured as 2^−ΔΔCt for the mRNA assay. Both for the Real Time PCR and western blot analyses, the data are expressed as fold increases in relation to the housekeeping genes. Proliferation (ki67 western blot assay) and apoptosis (caspase-9 western blot assay) assessed the expression as per the experimental conditions reported above.
(§5) Co-cultured bovine theca and granulosa cells; grown as described in phase 1. The expression of IGF-1 and IGF-BP1 were analyzed after treatment with Dioscorea villosa. […]

IGFBP-1 [2] = test: IGFBP-1 gene expression by Real Time PCR in co-cultured bovine theca and granulosa cells; details: Phase 1: FSH (46 h), LH + insulin, then exogenous IGF-1 100 ng/ml 48 h; vs untreated control
Description: as §1, §2, §3, §4, §5

ki-67 [3] = test: ki-67 gene expression (mRNA) in co-cultured bovine theca and granulosa cells; details: Phase 1: FSH (46 h), LH + insulin, then exogenous IGF-1 100 ng/ml 48 h; vs untreated control
Description: as §1, §2, §4, §5
(§6) The results were measured as […] for the mRNA assay. Both for the Real Time PCR and western blot analyses, the data are expressed as fold increases in relation to the housekeeping genes. […]
(§7) The results were measured as […] for the mRNA assay. […]

caspase-9 [4] = test: caspase-9 gene expression (mRNA) in co-cultured bovine theca and granulosa cells; details: Phase 1: FSH (46 h), LH + insulin, then exogenous IGF-1 100 ng/ml 48 h; vs untreated control
Description: as §1, §2, §4, §5, §6, §7

IGF-1 [5] = test: IGF-1 protein quantification by western blot in co-cultured bovine theca and granulosa cells; details: Phase 1: FSH (46 h), LH + insulin, then exogenous IGF-1 100 ng/ml 48 h; vs untreated control
Description: as §1, §2, §3, §4, §5

IGFBP-1 [6] = test: IGFBP-1 protein quantification by western blot in co-cultured bovine theca and granulosa cells; details: Phase 1: FSH (46 h), LH + insulin, then exogenous IGF-1 100 ng/ml 48 h; vs untreated control
Description: as §1, §2, §3, §4, §5

ki-67 [7] = test: Proliferation (ki67 western blot assay) in co-cultured bovine theca and granulosa cells
Description: as §1, §2, §4, §5, §6, §7

caspase-9 [8] = test: Apoptosis (caspase-9 western blot assay) in co-cultured bovine theca and granulosa cells
Description: as §1, §2, §4, §5, §6, §7

[9] = Phase 1: FSH (46 h), LH + insulin, then exogenous IGF-1 100 ng/ml 48 h, vs untreated control
[10] = Results text: treatment with IGF-1 (48 h)

IGF-1: exogenous insulin like growth factor IGF-1, 100 ng/ml for 48 h, used as proliferative stimulus
gene expression of IGF-1 (mRNA) (IGF-1 [1]): significant increase
gene expression of IGFBP-1 (mRNA) (IGFBP-1 [2]): not significant
gene expression of ki-67 (mRNA) (ki-67 [3]): significant increase
gene expression of caspase-9 (mRNA) (caspase-9 [4]): not significant
quantification of IGF-1 protein (IGF-1 [5]): significant increase
quantification of IGFBP-1 protein (IGFBP-1 [6]): not significant
quantification of ki-67 protein (ki-67 [7]; [9]): significant increase
proliferative effect (ki-67 [7]; [10]): strong proliferative effect
quantification of caspase-9 protein (caspase-9 [8]; [9]): not significant
rate of apoptosis observed in the cell culture (caspase-9 [8]; [10]): reduction in the rate of apoptosis
